{"source": "patent US20080139457A1", "about": "“Therapeutic compositions comprising chorionic gonadotropins and HMG CoA reductase inhibitors” (Virginia Commonwealth University, priority 2005, published 2008)", "key": {"LNCaP cells [1]": {"tested_on": "LNCaP cells", "experiment": "Apoptosis assay in LNCaP cells (trypan blue exclusion)", "assay_type": "cell-based, human", "conditions": "for effect of inhibitor on cell viability / hCG lethality: LY294002 10 μM or AG1478 1 μM 30 min before hCG 2 mU/ml", "procedure": "Cell culture. Human prostate cells (PC3 and LCNaP) were purchased from the ATCC were cultured at 37° C. (5% (v/v CO2) in vitro using RPMI supplemented with 10% (v/v) fetal calf serum.\nLNCaP cells were cultured as described above. […] The cells were isolated by trypsinization 96 hours after irradiation. The attached and floating cells were combined, and cell viability was determined by trypan blue exclusion assays using a light microscope (*p<0.05 value greater than corresponding vehicle/irradiated+vehicle value; n=3 per data point ±SEM from 3 studies).\nLNCaP cells were cultured as described above. […] Caspase inhibitors were re-supplemented every 24 hours. After 96 hours of culture, cell viability numbers were determined MTT assays using a plate reader. The cells were isolated 96 hours after irradiation by trypsinization, the attached and floating cells combined, and cell viability determine by trypan blue exclusion assays using a light microscope.\n(2) LNCaP cells were cultured as described above. […] Cells were isolated 96 h after irradiation by trypsinization, the attached and floating cells combined, and cell viability determine by trypan blue exclusion assays using a light microscope.\nLNCaP cells were cultured as described above. […] Cells were isolated 96 hours after irradiation by trypsinization, the attached and floating cells combined, and cell viability determine by trypan blue exclusion assays using a light microscope. Cells were then lysed in SDS PAGE sample buffer and equal protein concentrations subjected to SDS PAGE followed by immunoblotting to determine the PARP1 ADP-ribosylation status (activity status) in the presence or absence of PJ-34.\nLNCaP cells were cultured as described in Example 1. Twelve hours after plating the cells were transfected using Lipofectamine with either a scrambled siRNA (SCR) or with siRNA molecules to suppress PARP1 or AIF expression (siPARP; siAIF; 10 nM each). […] Cells were isolated 96 hours after irradiation by trypsinization, the attached and floating cells combined, and cell viability determine by trypan blue exclusion assays using a light microscope. Cells were then lysed in SDS PAGE sample buffer and equal protein concentrations subjected to SDS PAGE followed by immunoblotting to determine PARP1 and AIF expression in the presence or absence of siPARP and siAIF, siRNA molecules, respectively. PARP-induced cell death has been linked by some groups to the cytotoxic actions of AIF.\nApoptosis assay. LNCaP cells were cultured as described above. […] Cells were isolated by trypsinization 96 hours after irradiation, the attached and floating cells combined, and cell viability determine by trypan blue exclusion assays using a light microscope.\nLNCaP cells were cultured as described above. […] Cells were isolated 96 hours after irradiation by trypsinization, the attached and floating cells combined, and cell viability determine by trypan blue exclusion assays using a light microscope.\nLNCaP cells were cultured as described above. Twenty three hours after plating, cells were treated with either the control, vehicle (VEH, DMSO), or farnesyl pyrophosphate (FPP; 1 μM) or geranylgeranyl pyrophosphate (GGPP, 1 μM). […] In some cells the statin may enhance the effects of the chorionic gonadotropin by blocking farnesylation in which case the use of a farnesyl transferase inhibitor will be of further use.\nApoptosis assay in LNCaP Cells. (1) LNCaP cells were cultured as described above. Twelve hours after plating, cells were infected with either empty vector virus (CMV) or with viruses to express dominant negative AKT, dominant negative MEK1, dominant negative IkB, constitutively active AKT, and constitutively active MEK1 at a multiplicity of infection (m.o.i.) of 25. In other parallel plates of cells, 24 h after plating, cells were pretreated 30 minutes prior to any additional manipulation with either vehicle (VEH, DMSO) or a JNK½ inhibitory peptide (JNK-IP, 10 μM)."}, "ERBB1": {"tested_on": "ERBB1", "experiment": "Immunoblotting of ERBB1 phosphorylation in LNCaP cells", "assay_type": "cell-based, human", "conditions": "for effect on hCG-induced ERBB1 Y1173 phosphorylation: AG1478 1 μM, pertussis toxin 300 ng/ml, PD184352 1 μM or GM6001 1 μM, 30 min after hCG 2 mU/ml", "procedure": "(§1) SDS-PAGE and Immunoblotting. The cells were plated at 5×10^5 cells/cm^2 and treated with drugs at the indicated concentrations and after the indicated time of treatment, lysed in whole-cell lysis buffer (0.5 M Tris-HCl, pH 6.8, 2% SDS, 10% glycerol, 1% β-mercaptoethanol, 0.02% bromophenol blue), and the samples were boiled for 30 minutes. […] All immunoblots were visualized by enhanced chemiluminescence (ECL).\n(§2) (2) LNCaP cells were cultured as described above. 12 hours after plating, the cells were treated with vehicle (VEH, PBS) or pertussis toxin (300 ng/ml). 23 hours after plating cells were treated with vehicle (VEH, DMSO) or the ERBB1 inhibitor AG1478 (1 μM).\n(3) LNCaP cells were cultured as described above.\n(4) LNCaP cells were cultured as described above."}, "ERK½, JNK½, AKT (S473)": {"tested_on": "ERK½, JNK½, AKT (S473)", "experiment": "Immunoblotting of phosphorylation status of ERK½, JNK½, AKT in LNCaP cells", "assay_type": "cell-based, human", "conditions": "for effect on hCG-induced ERK½ activation: pertussis toxin 300 ng/ml, AG1478 1 μM or GM6001 1 μM, 30 min after hCG 2 mU/ml", "procedure": "SDS-PAGE and Immunoblotting. The cells were plated at 5×10^5 cells/cm^2 and treated with drugs at the indicated concentrations and after the indicated time of treatment, lysed in whole-cell lysis buffer (0.5 M Tris-HCl, pH 6.8, 2% SDS, 10% glycerol, 1% β-mercaptoethanol, 0.02% bromophenol blue), and the samples were boiled for 30 minutes. The boiled samples were loaded onto 10-14% SDS-PAGE and electrophoresis was run overnight. Proteins were electrophoretically transferred onto 0.22 μm nitrocellulose, and immunoblotted with various primary antibodies against different proteins. All immunoblots were visualized by enhanced chemiluminescence (ECL).\n(§3) (1) LNCaP cells were cultured as described above. […] 0-6 hours after treatment, the cells were isolated, lysed in SDS PAGE sample buffer and equal protein concentrations subjected to SDS PAGE followed by immunoblotting to determine the phosphorylation status (activity status) of ERK½, JNK½, AKT (S473) and the expression level of ERK2 protein.\nas §2\n(4) LNCaP cells were cultured as described above. […] Thirty minutes after irradiation the cells were isolated, lysed in SDS PAGE sample buffer and equal protein concentrations subjected to SDS PAGE followed by immunoblotting to determine the phosphorylation status (activity status) of ERK½ and ERBB1 Y1068 and the expression levels of ERBB1 and ERK2 proteins.\nas §3, with “LNCaP” for “(1) LNCaP”, “At the indicated times” for “0-6 hours”, “treatment (12-96 h),” for “treatment,”"}, "LNCaP cells [2]": {"tested_on": "LNCaP cells", "experiment": "MTT cell growth assay in LNCaP cells", "assay_type": "cell-based, human", "conditions": "caspase inhibitor 50 μM, radiation 4 Gy, 96 h", "procedure": "LNCaP cells were cultured as described above. […] Caspase inhibitors were re-supplemented every 24 hours. After 96 hours of culture, cell viability numbers were determined MTT assays using a plate reader."}, "PARP1": {"tested_on": "PARP1", "experiment": "PARP1 ADP-ribosylation status (immunoblot) in LNCaP cells", "assay_type": "cell-based, human", "conditions": "AG1478 5 minutes after or 30 minutes before radiation; hCG 2 mU/ml, 4 Gy", "procedure": "as §1\n(§4) LNCaP cells were cultured as described above.\nas §4"}, "LNCaP cells [3]": {"tested_on": "LNCaP cells", "experiment": "Cell survival (colony formation) assay in LNCaP cells", "assay_type": "cell-based, human", "conditions": "AG1478 1 μM removed 96 h after hCG 2 mU/ml and 4 Gy; 28 days", "procedure": "as §4\nApoptosis Assay. LNCaP cells were cultured as described above.\nas §4"}, "[4]": {"conditions": "cited from earlier work"}}, "note": "“Also recorded” adds a separate entry of the source.", "data": [{"compound": "CN(C)CC(=O)Nc1ccc2[nH]c(=O)c3ccccc3c2c1", "note": "[PJ-34]", "values": [{"measurement": "effect of PARP inhibition on potentiation of hCG lethality by radiation", "setting": "LNCaP cells [1]; PJ-34 5 μM, hCG 2 mU/ml, 4 Gy, 96 h", "value": "abolished the potentiation of hCG lethality by radiation"}]}, {"compound": "O=C(NOCC1CC1)c1ccc(F)c(F)c1Nc1ccc(I)cc1Cl", "note": "[PD184352]", "values": [{"measurement": "effect on hCG-induced ERBB1 Y1173 phosphorylation", "setting": "ERBB1", "value": "abolished"}, {"measurement": "effect on radiation-induced ERBB1 Y1173 phosphorylation", "setting": "ERBB1; PD184352 1 μM, 4 Gy, 30 min after irradiation", "value": "did not alter radiation-induced ERBB1 Y1173 phosphorylation"}]}, {"compound": "CNC(=O)[C@H](Cc1c[nH]c2ccccc12)NC(=O)[C@@H](CC(=O)NO)CC(C)C", "note": "[GM6001]", "values": [{"measurement": "effect on hCG-induced ERBB1 Y1173 phosphorylation", "setting": "ERBB1", "value": "abolisged ERBB1 Y1173 phosphorylation"}, {"measurement": "effect on hCG-induced ERK½ activation", "setting": "ERK½, JNK½, AKT (S473)", "value": "abolisged ERBB1 Y1173 phosphorylation and ERK½ activation"}]}, {"compound": "zVAD", "values": [{"measurement": "protection from toxicity of ionizing radiation in MTT assays", "setting": "LNCaP cells [2]", "value": "partially protected cells from the toxicity of ionizing radiation"}, {"measurement": "effect of caspase inhibitor on lethality of lovastatin and hCG combination", "setting": "LNCaP cells [1]; LEHD 50 μM or zVAD 50 μM, lovastatin 0.6 μM, hCG 2 mU/ml, 96 h", "value": "reduced the lethality of the lovastatin and hCG combination"}, {"measurement": "effect of caspase inhibitor on cell death by hCG and radiation", "setting": "LNCaP cells [1]; caspase inhibitor 50 μM, hCG 2 mU/ml, 4 Gy, 96 h", "value": "modestly blunted"}]}, {"compound": "COc1cc2ncnc(Nc3cccc(Cl)c3)c2cc1OC", "note": "[AG1478]", "values": [{"measurement": "effect on PARP activation by combined hCG and radiation", "setting": "PARP1", "value": "abolished the profound activation of PARP caused by combined hCG and radiation treatment"}, {"measurement": "effect on hCG-induced ERBB1 Y1173 phosphorylation", "setting": "ERBB1", "value": "blocked"}, {"measurement": "effect on hCG-induced ERK½ activation", "setting": "ERK½, JNK½, AKT (S473)", "value": "blocked hCG-induced ERK½ activation"}, {"measurement": "effect of ERBB1 inhibition on cell killing by hCG and radiation (colony formation)", "setting": "LNCaP cells [3]", "value": "prevented the greater than additive induction of cell killing caused by combined hCG and radiation exposure"}, {"measurement": "effect of inhibitor on cell viability / hCG lethality", "setting": "LNCaP cells [1]; 96 h", "value": "did not significantly alter cell viability following hCG exposure"}]}, {"compound": "CC(C)=CCC/C(C)=C/CC/C(C)=C/CC/C(C)=C/COP(=O)(O)OP(=O)(O)O", "note": "[GGPP, geranylgeranyl pyrophosphate]", "values": [{"measurement": "effect on the lethal interaction between hCG and lovastatin", "setting": "LNCaP cells [1]; FPP 1 μM or GGPP 1 μM, lovastatin 0.6 μM, hCG 2 mU/ml, 96 h", "value": "abolished the lethal interaction between hCG and lovastatin"}]}, {"compound": "COC(=O)[C@H](CC(C)C)NC(=O)c1ccc(NC[C@@H](N)CS)cc1-c1ccccc1", "note": "[GGTI-286]", "values": [{"measurement": "cell killing with hCG when used in place of lovastatin", "setting": "LNCaP cells [1]; GGTI-286 10 μM with hCG", "value": "Identical data LNCaP cell killing data for hCG and lovastatin exposure were obtained"}]}, {"compound": "Cl.O=c1cc(N2CCOCC2)oc2c(-c3ccccc3)cccc12", "note": "[LY294002, 2-(4-Morpholinyl)-8-phenyl-4H-1-benzopyran-4-one hydrochloride]", "values": [{"measurement": "effect of inhibitor on cell viability / hCG lethality", "setting": "LNCaP cells [1]; 96 h", "value": "enhanced hCG lethality in LNCaP cells in a greater than additive fashion"}]}, {"compound": "pertussis toxin", "values": [{"measurement": "effect on hCG-induced ERBB1 Y1173 phosphorylation", "setting": "ERBB1", "value": "blocked"}, {"measurement": "effect on hCG-induced ERK½ activation", "setting": "ERK½, JNK½, AKT (S473)", "value": "suppressed hCG-induced activation of ERK½"}]}, {"compound": "CC[C@H](C)C(=O)O[C@H]1C[C@@H](C)C=C2C=C[C@H](C)[C@H](CC[C@@H]3C[C@@H](O)CC(=O)O3)[C@H]21", "note": "[lovastatin]", "values": [{"measurement": "concentrations achievable in human plasma", "setting": "[4]", "value": "100 to 600", "unit": "nM"}, {"measurement": "JNK½ activation, combined exposure", "setting": "ERK½, JNK½, AKT (S473); lovastatin 0.6 μM with hCG 2 mU/ml, within 48 hours", "value": "promoted JNK½ activation"}, {"measurement": "hCG induced ERK½ and AKT activation", "setting": "ERK½, JNK½, AKT (S473); lovastatin 0.6 μM, hCG 2 mU/ml, within 48 hours", "value": "suppressed hCG induced ERK½ and AKT activation"}, {"measurement": "basal AKT activity", "setting": "ERK½, JNK½, AKT (S473); lovastatin 0.6 μM, within 48 hours", "value": "suppressed basal AKT activity; also recorded: reduced AKT activity"}, {"measurement": "enhancement of the lethality of hCG", "setting": "LNCaP cells [1]; lovastatin 0.1-0.6 μM 30 min before hCG 1 or 2 mU/ml, 96 h", "value": "enhanced the lethality of hCG to an extent greater than was observed using a PI3K inhibitor"}]}]}
